A word on the Ki: it is a measure of affinity in units of concentration, obtained from inhibition or displacement. Lower therefore signals a stronger hold on the target.

Active and inactive are the calls of the source. The rule behind the calls is not given here.

The source of these data is ChEMBL document CHEMBL1135321, “Tetrahydrothienopyridylbutyl-tetrahydrobenzindoles: new selective ligands of the 5-HT(7) receptor” (Bioorg Med Chem Lett, 2002).

Test [1] has as its target Serotonin 2 (5-HT2) receptor (Rattus norvegicus, UniProt P30994+P08909+P14842). As to the kind of experiment: Ability to displace the radioligand [3H]ketanserin from 5-hydroxytryptamine 2 receptor of rat cerebral cortex membrane. It is filed as tissue-based.
Test [2] concerns the target 5-hydroxytryptamine receptor 7 (Homo sapiens, UniProt P34969). As to the kind of experiment: Ability to displace the radioligand [3H]5-carboxyamidotryptamine ([3H]5-CT) from human 5-hydroxytryptamine 7 receptor expressed in COS-7 cells. It is filed as cell-based.
In test [3] the target is T1, 5-hydroxytryptamine receptor 1B (Rattus norvegicus, UniProt P28564). As to the kind of experiment: Ability to displace the radioligand [125I](-)-iodocyanopindolol from rat striatal 5-HT1B receptor.
T1 sequence (P28564 whole entry): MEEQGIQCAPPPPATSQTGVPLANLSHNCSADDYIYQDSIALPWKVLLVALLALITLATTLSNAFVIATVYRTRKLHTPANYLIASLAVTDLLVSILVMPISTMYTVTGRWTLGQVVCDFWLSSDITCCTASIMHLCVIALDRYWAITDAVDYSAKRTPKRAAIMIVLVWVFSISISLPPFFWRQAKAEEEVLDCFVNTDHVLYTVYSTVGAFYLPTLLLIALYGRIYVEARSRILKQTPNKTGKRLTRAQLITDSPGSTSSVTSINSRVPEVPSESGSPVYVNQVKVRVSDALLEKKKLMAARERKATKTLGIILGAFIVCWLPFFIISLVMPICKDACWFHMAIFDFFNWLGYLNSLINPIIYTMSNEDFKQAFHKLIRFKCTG
In test [4] the target is T2, 5-hydroxytryptamine receptor 1A (Homo sapiens, UniProt P08908).
T2 sequence (P08908 whole entry): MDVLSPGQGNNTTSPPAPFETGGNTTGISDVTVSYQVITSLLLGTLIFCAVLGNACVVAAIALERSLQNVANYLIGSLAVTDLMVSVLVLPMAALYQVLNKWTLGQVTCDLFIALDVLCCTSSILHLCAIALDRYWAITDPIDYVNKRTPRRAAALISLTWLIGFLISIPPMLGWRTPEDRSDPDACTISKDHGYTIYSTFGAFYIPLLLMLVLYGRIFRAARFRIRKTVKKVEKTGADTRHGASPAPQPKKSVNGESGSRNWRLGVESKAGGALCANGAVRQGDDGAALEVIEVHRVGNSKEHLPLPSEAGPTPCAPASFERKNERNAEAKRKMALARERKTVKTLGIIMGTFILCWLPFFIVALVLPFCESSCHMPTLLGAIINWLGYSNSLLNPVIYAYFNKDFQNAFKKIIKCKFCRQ
As to the kind of experiment: Ability to displace the radioligand [3H]-8-OH-DPAT from human 5-hydroxytryptamine 1A receptor.

In test [5] the target is T3, Serotonin 3 receptor (5HT3) (Mus musculus, UniProt Q9JHJ5+P23979).
T3 sequence (Q9JHJ5 whole entry): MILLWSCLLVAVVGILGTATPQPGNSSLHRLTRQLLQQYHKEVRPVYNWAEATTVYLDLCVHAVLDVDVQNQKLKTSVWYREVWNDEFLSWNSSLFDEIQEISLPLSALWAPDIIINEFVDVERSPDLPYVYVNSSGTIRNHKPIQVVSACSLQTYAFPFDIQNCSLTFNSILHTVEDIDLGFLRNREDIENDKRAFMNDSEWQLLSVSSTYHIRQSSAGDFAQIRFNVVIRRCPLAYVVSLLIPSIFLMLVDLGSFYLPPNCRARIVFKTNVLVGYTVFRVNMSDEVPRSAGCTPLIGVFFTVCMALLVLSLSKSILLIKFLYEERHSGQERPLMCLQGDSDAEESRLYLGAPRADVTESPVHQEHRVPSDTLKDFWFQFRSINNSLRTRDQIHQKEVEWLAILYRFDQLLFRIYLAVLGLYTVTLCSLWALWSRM
T3 sequence (P23979 whole entry): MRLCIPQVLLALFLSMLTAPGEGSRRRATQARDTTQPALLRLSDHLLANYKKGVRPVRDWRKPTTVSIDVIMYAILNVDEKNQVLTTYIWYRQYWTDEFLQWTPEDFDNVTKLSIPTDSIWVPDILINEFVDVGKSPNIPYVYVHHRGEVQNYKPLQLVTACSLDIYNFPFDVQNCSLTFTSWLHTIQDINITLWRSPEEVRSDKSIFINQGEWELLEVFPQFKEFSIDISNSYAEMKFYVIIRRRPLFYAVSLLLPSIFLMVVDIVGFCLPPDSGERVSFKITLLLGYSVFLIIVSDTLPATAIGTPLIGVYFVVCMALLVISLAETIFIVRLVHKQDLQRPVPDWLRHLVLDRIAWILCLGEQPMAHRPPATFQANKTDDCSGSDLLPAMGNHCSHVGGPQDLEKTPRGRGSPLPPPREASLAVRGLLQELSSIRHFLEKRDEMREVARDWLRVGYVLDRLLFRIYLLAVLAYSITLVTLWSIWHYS
As to the kind of experiment: Ability to displace the radioligand [3H]GR-65630 from 5-hydroxytryptamine 3 receptor expressed in NIE-115 cells. It is filed as cell-based.

Test [6] has as its target 5-hydroxytryptamine receptor 6 (Homo sapiens, UniProt P50406). As to the kind of experiment: Ability to displace the radioligand [3H]LSD from human 5-hydroxytryptamine 6 receptor.
Test [7] deals with T4, 5-hydroxytryptamine receptor 4 (Cavia porcellus, UniProt O70528). As to the kind of experiment: Ability to displace the radioligand [3H]GR-113808 from guinea pig striatum 5-HT4 receptor.
T4 sequence (O70528 whole entry): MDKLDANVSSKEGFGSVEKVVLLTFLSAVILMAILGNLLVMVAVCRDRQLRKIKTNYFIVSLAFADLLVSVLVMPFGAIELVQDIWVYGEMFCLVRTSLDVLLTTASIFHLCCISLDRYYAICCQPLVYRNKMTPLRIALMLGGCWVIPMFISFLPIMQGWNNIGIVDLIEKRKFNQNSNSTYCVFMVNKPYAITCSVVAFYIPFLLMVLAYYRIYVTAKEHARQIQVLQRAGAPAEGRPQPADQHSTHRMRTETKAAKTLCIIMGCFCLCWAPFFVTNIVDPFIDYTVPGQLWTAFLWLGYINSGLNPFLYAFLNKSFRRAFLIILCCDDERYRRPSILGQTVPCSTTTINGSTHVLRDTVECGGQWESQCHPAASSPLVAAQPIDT
Test [8] has as its target T4, 5-hydroxytryptamine receptor 4. As to the kind of experiment: Ability to displace the radioligand [3H]GR-113808 from guinea pig striatum 5-hydroxytryptamine 4 receptor.
The target of test [9] is T1, 5-hydroxytryptamine receptor 1B. As to the kind of experiment: Ability to displace the radioligand [125I](-)-iodocyanopindolol from rat striatal 5-hydroxytryptamine 1B receptor.
The test system of test [10] is HEK293. As to the kind of experiment: Influence on 5-HT-induced stimulation of cAMP accumulation in HEK 293 cells; NS is not Stimulated. The class given is functional, cell-based. Particulars: Homo sapiens.

Sequence of 5-hydroxytryptamine receptor 7 (P34969 whole entry): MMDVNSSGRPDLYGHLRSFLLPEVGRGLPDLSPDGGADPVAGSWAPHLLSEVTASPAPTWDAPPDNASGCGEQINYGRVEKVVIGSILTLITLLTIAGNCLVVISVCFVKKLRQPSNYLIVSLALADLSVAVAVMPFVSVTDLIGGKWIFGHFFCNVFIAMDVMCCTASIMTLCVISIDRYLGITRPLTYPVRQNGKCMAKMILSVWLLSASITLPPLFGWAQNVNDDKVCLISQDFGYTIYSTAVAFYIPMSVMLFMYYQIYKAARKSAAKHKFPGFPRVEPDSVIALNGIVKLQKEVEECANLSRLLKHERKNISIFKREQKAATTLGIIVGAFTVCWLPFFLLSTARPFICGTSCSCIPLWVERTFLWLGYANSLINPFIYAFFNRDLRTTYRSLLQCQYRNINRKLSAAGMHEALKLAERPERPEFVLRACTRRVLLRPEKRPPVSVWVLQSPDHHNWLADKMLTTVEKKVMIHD
Sequence of 5-hydroxytryptamine receptor 6 (P50406 whole entry): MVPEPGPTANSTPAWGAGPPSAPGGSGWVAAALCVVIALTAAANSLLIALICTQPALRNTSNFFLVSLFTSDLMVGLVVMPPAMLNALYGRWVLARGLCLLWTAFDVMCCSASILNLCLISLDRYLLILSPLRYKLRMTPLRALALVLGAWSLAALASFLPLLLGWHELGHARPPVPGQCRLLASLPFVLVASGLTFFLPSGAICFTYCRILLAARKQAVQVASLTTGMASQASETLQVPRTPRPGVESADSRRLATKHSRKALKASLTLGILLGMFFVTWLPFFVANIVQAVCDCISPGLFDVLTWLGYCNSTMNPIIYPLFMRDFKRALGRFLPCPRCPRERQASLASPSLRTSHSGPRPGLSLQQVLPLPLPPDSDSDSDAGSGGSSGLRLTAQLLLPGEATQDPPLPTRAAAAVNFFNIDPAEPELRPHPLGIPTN

Regarding `CCN1C(=O)C2(CCCCN3CCc4sccc4C3)CCCc3cccc1c32` (centres undefined), the “Log Ki” value in test [1] was -6.31. Moreover, in test [2], the Ki is 174 nM.

Take `O=C1Nc2cccc3c2C1(CCCCN1CCc2n[nH]cc2C1)CCC3` (centres undefined): in test [1], the “Log Ki” value is listed as less than -6. Moreover, the affinity in test [2], expressed as Ki, was 813 nM.

On to `O=C1Nc2cccc3c2C1(CCCCN1CCc2[nH]cnc2C1)CCC3` (centres undefined), for which, in [1], the “Log Ki” value is less than -6. This compound also showed an inhibition constant (Ki) in test [2] of 562 nM.

Turning to `O=C1Nc2cccc3c2C1(CCCCCN1CCc2ccccc2C1)CCC3` (centres undefined), the “Log Ki” value in [1] is -6.16. For the same compound, the affinity in test [2], expressed as Ki, was 12.6 nM.

In the case of `CN1C(=O)C2(CCCCN3CCc4sccc4C3)CCCc3cccc1c32` (centres undefined), the “Log Ki” value was -6.02 in test [1] and less than -6 in [5]. Moreover, the Ki was greater than 1000 nM in test [3]; 9.77 nM in test [2]; 776 nM in [4]; greater than 1000 nM in [6]; greater than 1000 nM in [7].

On to `O=C1Nc2cccc3c2C1(CCCCN1CCc2sccc2C1)CCC3` (centres undefined), for which the “Log Ki” value in [1] is reported as -6.08; in [5], less than -6. Further, the Ki in [8] was greater than 1000 nM; in test [9], greater than 1000 nM; in [2] it was 6.46 nM; in test [4] it was 513 nM; in test [6], greater than 1000 nM. Moreover, the outcome in test [10] was inactive.

With `O=C1Nc2cccc3c2C1(CCCCN1CCc2occc2C1)CCC3` (centres undefined), in [1], the “Log Ki” value is less than -6. In addition, in test [2], the inhibition constant (Ki) was 15.8 nM.

For `O=C1Nc2cccc3c2C1(CCCCN1CCc2ccccc2C1)CCC3` (centres undefined), the “Log Ki” value in test [1] is given as -6.21. Further, the Ki in test [2] was 4.47 nM.

As to `O=C1Nc2cccc3c2C1(CCCN1CCc2ccccc2C1)CCC3` (centres undefined), the “Log Ki” value in test [1] was -6.31. In [2], this compound had a Ki of 8.32 nM.
